A short description of the data set: Compound was evaluated for its stability to dephosphorylation. It counts as physicochemical.

In general, half-life refers to the time needed for the level to fall by half in the phase considered. `Nc1ncnc2c1ncn2[C@@H]1C[C@@H](OCP(=O)(O)OP(=O)(O)O)[C@@H]2C[C@@H]21` showed a half-life of 4.5 h.
In the case of `Nc1nc(O)c2ncn([C@@H]3C=C[C@H](OCP(=O)(O)OP(=O)(O)C(Br)(Br)P(=O)(O)O)C3)c2n1`, the half-life is > 168 h.
For `Nc1ncnc2c1ncn2[C@H]1C[C@H](O)[C@@H](COP(=O)(O)OP(=O)(O)OP(=O)(O)O)O1`, the half-life came out at 0.833 h.
On to `Nc1ncnc2c1ncn2[C@H]1C[C@H](OCP(=O)(O)OP(=O)(O)O)[C@H]2C[C@H]21`, for which the half-life is > 168 h.
Consider `Nc1ncnc2c1ncn2[C@@H]1C[C@@H](OCP(=O)(O)CP(=O)(O)O)[C@@H]2C[C@@H]21`, for which the half-life was > 168 h.
As for `Nc1ncnc2c1ncn2[C@H]1C[C@H](OCP(=O)(O)CP(=O)(O)O)[C@H]2C[C@H]21`, the figure is > 168 h.
As to `Nc1ncnc2c1ncn2[C@@H]1C=C[C@H](OCP(=O)(O)OP(=O)(O)OP(=O)(O)O)C1`, the half-life is 3 h.
Regarding `Nc1ncnc2c1ncn2[C@@H]1C=C[C@H](OCP(=O)(O)OP(=O)(O)C(Br)(Br)P(=O)(O)O)C1`, the half-life was > 168 h.
In the case of `Nc1nc(O)c2ncn([C@@H]3C=C[C@H](OCP(=O)(O)OP(=O)(O)OP(=O)(O)O)C3)c2n1`, the half-life is 4 h.
On to `Nc1ncnc2c1ncn2[C@H]1C=C[C@@H](OCP(=O)(O)OP(=O)(O)OP(=O)(O)O)C1`, for which the half-life is 2 h.
`Nc1nc2c(ncn2[C@H]2C[C@H](O)[C@@H](COP(=O)(O)OP(=O)(O)OP(=O)(O)O)O2)c(=O)[nH]1` [DEOXYGUANOSINE TRIPHOSPHATE]: the half-life is 1 h.
On to `Cc1cn([C@H]2C[C@H](N=[N+]=[N-])[C@@H](CO[P@](=O)(O)O[P@](=O)(O)OP(=O)(O)O)O2)c(=O)[nH]c1=O` [ZIDOVUDINE TRIPHOSPHATE], for which the half-life is < 0.0167 h.
